Source: patent US7667036B2, “Pyrazolo[1,5-a]pyrimidine derivatives” (Teijin Pharma Limited, priority 2004, dated 2010)

Target: MAPKAP-K2 (Homo sapiens, UniProt P49137)
Experiment: MAPKAP-K2 enzyme activity inhibition assay, Method B (33P-ATP, MultiScreen-PH plate)
Assay type: biochemical
Conditions: recombinant human MAPKAP-K2, 0.5% DMSO, 30 min room temperature, read-out: Inhibitory activity (MAPKAP-K2 IC50 class)
Procedure: The assay of inhibitory activity was performed according to Method A described below for Compound No. 1, 2, 3, 4, 20, 21, 22, 23, 24, 25, 26, 79, 80 and 81, and Method B described below for the other compounds.
A compound was dissolved in […] to make its concentration to 20 mmol/L, and the resultant solution was stored at −20° C. The stock solution was sequentially diluted with DMSO to prepare a solution having a 200-fold concentration of the required range. Further the solution was diluted with water to 1:20 to prepare a solution having a 10-fold concentration of the required range, and an aliquot of 5 μL of each solution was used for every reaction with 50 μL. During the continuous dilution of all compounds, the final DMSO concentration was maintained at 0.5%. Compounds were routinely tested at a final concentration ranging from 100 μmol/L to 0.03 μmol/L, but were sometimes tested at a lower concentration depending upon their activity.
The reaction was initiated by adding 25 μL of a peptide substrate solution [60 μmol/L substrate peptide, 20 μmol/L ATP, 50 mmol/L Tris buffer (pH 7.5), 0.1 mmol/L EGTA, 0.1% β-mercaptoetanol, 20 mmol/L magnesium acetate, and 0.1 μCi [γ-33P]ATP (specific radio activity: approximately 110 TBq/mmol)] to 5 μL of a 5% DMSO solution of the test compound and subsequently adding 20 μL of a MAPKAP-K2 enzyme solution [10 mU recombinant human MAPKAP-K2, 50 mmol/L Tris buffer (pH 7.5), 0.1 mmol/L EGTA, 0.1% β-mercaptoethanol, 0.1% BSA]. After performing the reaction for 30 min at room temperature, an equivalent volume of 200 mmol/L phosphoric acid solution was added to terminate the reaction. Subsequently, 90 μL of the reaction product was adsorbed on a MultiScreen-PH Plate (Millipore) and then rinsed with 100 mmol/L phosphoric acid solution. After drying the plate, 30 μL of MicroScint-O (Packard BioScience) was added, and further the count per minute was measured by a scintillation counter to determine the inhibitory activity. The substrate peptide was Lys-Lys-Leu-Asn-Arg-Tlr-Leu-Ser-Val-Ala.
• % Control=(X−B)/(Tot−B)×100 • % Inhibition=100—% Control • X=count per minute of a test compound well • B=count per minute of a well without containing enzyme • Tot=count per minute of a well with DMSO solvent only, without containing the test compound (MAPKAP-K2 inhibitory activity) • IC50 value=the compound concentration at 50% inhibition

Chain of MAPKAP-K2 (P49137 whole entry): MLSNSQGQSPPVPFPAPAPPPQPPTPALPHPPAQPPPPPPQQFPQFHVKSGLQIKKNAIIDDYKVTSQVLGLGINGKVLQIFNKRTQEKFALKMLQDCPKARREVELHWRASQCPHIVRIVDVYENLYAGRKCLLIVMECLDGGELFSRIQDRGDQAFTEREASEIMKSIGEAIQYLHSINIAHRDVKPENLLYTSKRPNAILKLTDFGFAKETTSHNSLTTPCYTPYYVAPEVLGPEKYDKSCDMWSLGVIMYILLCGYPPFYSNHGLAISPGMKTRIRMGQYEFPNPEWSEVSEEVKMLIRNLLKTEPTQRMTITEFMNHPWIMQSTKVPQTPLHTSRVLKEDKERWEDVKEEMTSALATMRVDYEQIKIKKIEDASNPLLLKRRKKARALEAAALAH

CCOc1ccc(Nc2c(C)c(OC[C@H]3CCCN3)nc3ccnn23)cc1 [compound 260] and CCOc1ccc(Nc2c(C)c(OC[C@@H]3CCCN3)nc3ccnn23)cc1 [compound 261] fall in the same range of IC50: 20 to 100 µM for the first, 20 to 100 µM for the second.

Cc1c(OC2CCCNC2)nc2ccnn2c1Nc1ccc(C(=O)c2ccccc2)cc1 (centres unmarked) [compound 51] and Cc1c(OC2CCCNC2)nc2ccnn2c1Nc1ccc(Cc2ccccc2)cc1 (centres unmarked) [compound 52] fall in the same range of IC50: 2 to 20 µM for the first, 2 to 20 µM for the second.

CCn1c2ccccc2c2cc(Nc3c(C)c(OC4CCCNC4)nc4ccnn34)ccc21 (centres unmarked) [compound 56] and CCn1c2ccccc2c2cc(Nc3c(C)c(O[C@H]4CC[C@@H](N)CC4)nc4ccnn34)ccc21 [compound 65] cannot be ordered by IC50: 2 to 20 µM for the first, ≤ 2 µM for the second.

CCOc1ccc(Nc2c(C)c(OCC(C)=O)nc3ccnn23)cc1 [compound 259] and CCOc1ccc(Nc2c(C)c(OCC(C)N)nc3ccnn23)cc1 (centres unmarked) [compound 33] fall in the same range of IC50: 20 to 100 µM for the first, 20 to 100 µM for the second.

First: CCOc1ccc(Nc2c(C)c(OC3CCNCC3)nc3ccnn23)cc1 [compound 239]
Second: CCOc1ccc(Nc2c(C)c(O[C@@H]3CCNC3)nc3ccnn23)cc1 [compound 264]
The IC50 of the first is lower: ≤ 2 µM for the first, 20 to 100 µM for the second. The first is the more potent here.

Cc1c(OC2CCCNC2)nc2ccnn2c1Nc1cccc2cnccc12 (centres unmarked) [compound 63] and COc1ccc(Cl)cc1Nc1c(C)c(OC2CCCNC2)nc2ccnn12 (centres unmarked) [compound 55] fall in the same range of IC50: 20 to 100 µM for the first, 20 to 100 µM for the second.

Cc1c(O[C@H]2CC[C@@H](N)CC2)nc2ccnn2c1Nc1ccc(C#N)c(C(F)(F)F)c1 [compound 72] and Cc1c(O[C@H]2CC[C@@H](N)CC2)nc2ccnn2c1Nc1ccc(SC(F)(F)F)cc1 [compound 73] cannot be ordered by IC50: ≤ 2 µM for the first, ≤ 2 µM for the second.

Cc1c(O[C@H]2CC[C@@H](N)CC2)nc2ccnn2c1Nc1ccc2nc(SC(C)C)sc2c1 [compound 75] and Cc1c(O[C@H]2CC[C@@H](N)CC2)nc2ccnn2c1Nc1ccc(O)cc1 [compound 78] cannot be ordered by IC50: ≤ 2 µM for the first, ≤ 2 µM for the second.

COc1ccc(Cl)cc1Nc1c(C)c(O[C@H]2CC[C@@H](N)CC2)nc2ccnn12 [compound 64] and CCc1c(O[C@H]2CC[C@@H](N)CC2)nc2ccnn2c1Nc1ccc(F)c(Cl)c1 [compound 10] fall in the same range of IC50: 2 to 20 µM for the first, 2 to 20 µM for the second.

COC(=O)c1ccc(Nc2c(C)c(OC3CCCNC3)nc3ccnn23)cc1 (centres unmarked) [compound 47] and Cc1c(OC2CCCNC2)nc2ccnn2c1Nc1ccc(SC(F)(F)F)cc1 (centres unmarked) [compound 54] fall in the same range of IC50: 2 to 20 µM for the first, 2 to 20 µM for the second.

CCOc1ccc(Nc2c(C)c(OC(CN)CN)nc3ccnn23)cc1 [compound 42] and CCOc1ccc(Nc2c(C)c(OCC(N)CC)nc3ccnn23)cc1 (centres unmarked) [compound 36] fall in the same range of IC50: 20 to 100 µM for the first, 20 to 100 µM for the second.

CCc1c(O[C@H]2CC[C@@H](N)CC2)nc2ccnn2c1Nc1ccc(I)cc1 [compound 102] and CCc1c(O[C@H]2CC[C@@H](N)CC2)nc2ccnn2c1Nc1ccccc1F [compound 9] cannot be ordered by IC50: ≤ 2 µM for the first, 2 to 20 µM for the second.

Cc1c(O[C@H]2CC[C@@H](N)CC2)nc2ccnn2c1NCc1ccccc1 [compound 268] and Cc1c(O[C@H]2CC[C@@H](N)CC2)nc2ccnn2c1Nc1ccc(OCc2ccccc2)cc1 [compound 76] cannot be ordered by IC50: 2 to 20 µM for the first, ≤ 2 µM for the second.

Cc1ccc2nc(-c3ccc(Nc4c(C)c(OC5CCCNC5)nc5ccnn45)cc3)sc2c1 (centres unmarked) [compound 60] and CC(=O)c1ccc(-c2ccc(Nc3c(C)c(O[C@H]4CC[C@@H](N)CC4)nc4ccnn34)cc2)s1 [compound 92] cannot be ordered by IC50: ≤ 2 µM for the first, ≤ 2 µM for the second.

Cc1c(OC2CCCNC2)nc2ccnn2c1Nc1ccc(OC(F)(F)F)c(Cl)c1 (centres unmarked) [compound 57] and Cc1c(OC2CCCNC2)nc2ccnn2c1Nc1cccc(NS(C)(=O)=O)c1 (centres unmarked) [compound 48] fall in the same range of IC50: 2 to 20 µM for the first, 2 to 20 µM for the second.

CCOc1ccc(Nc2c(C)c(OC3CC(C)(C)CC(C)(CN)C3)nc3ccnn23)cc1 (centres unmarked) [compound 44] and CCOc1ccc(Nc2c(C)c(OC3CCN(C)C3)nc3ccnn23)cc1 (centres unmarked) [compound 256] fall in the same range of IC50: 20 to 100 µM for the first, 20 to 100 µM for the second.

c1ccc(COc2ccc(Nc3c(-c4ccccc4)c(OC4CCCNC4)nc4ccnn34)cc2)cc1 (centres unmarked) [compound 275] and Cc1c(OC2CCNCC2)nc2ccnn2c1Nc1ccc(OCc2ccccc2)cc1 [compound 240] fall in the same range of IC50: 2 to 20 µM for the first, 2 to 20 µM for the second.

First: CCOc1ccc(Nc2c(C)c(O[C@@H]3CC[C@@H](C)NC3)nc3ccnn23)cc1 [compound 17]
Second: CCOc1ccc(Nc2c(C)c(O[C@@H]3CC[C@H](C)NC3)nc3ccnn23)cc1 [compound 18]
The IC50 of the first is lower: 2 to 20 µM for the first, 20 to 100 µM for the second.

Compared with CCOc1ccc(Nc2c(C)c(O[C@@H]3CN(C(=O)OCc4ccccc4)CC[C@H]3CC(=O)NCc3ccccc3)nc3ccnn23)cc1 [compound 87], CCOc1ccc(Nc2c(C)c(O[C@@H]3CNCC[C@H]3CC(=O)NCc3ccccc3)nc3ccnn23)cc1 [compound 85] is lower in IC50: 20 to 100 µM for the first, 2 to 20 µM for the second. The second is the more potent here.

Cc1c(O[C@H]2CC[C@H](N)CC2)nc2ccnn2c1Nc1ccc(-c2cccc(N)c2)cc1 [Compound No. 93, N-4′-[5-(trans-4-aminocyclohexyloxy)-6-methylpyrazolo[1,5-a]pyrimidin-7-yl] biphenyl-3,4′-diamine] and COc1ccc(Nc2ccc(Nc3c(C)c(O[C@H]4CC[C@@H](N)CC4)nc4ccnn34)cc2)cc1 [compound 66] cannot be ordered by IC50: ≤ 2 µM for the first, ≤ 2 µM for the second.

CCOc1ccc(Nc2c(C)c(O[C@@H]3CNCC[C@H]3CCO)nc3ccnn23)cc1 [compound 27] and CCOc1ccc(Nc2c(C)c(O[C@H]3CNCC[C@@H]3CCO)nc3ccnn23)cc1 [compound 41] cannot be ordered by IC50: ≤ 2 µM for the first, ≤ 2 µM for the second.

Compared with CCOc1ccc(Nc2c(C)c(OCCNC)nc3ccnn23)cc1 [compound 263], CCOc1ccc(Nc2c(C)c(OCC3CCCNC3)nc3ccnn23)cc1 (centres unmarked) [compound 244] is lower in IC50: 20 to 100 µM for the first, 2 to 20 µM for the second.

First: C=CCc1c(O[C@H]2CC[C@@H](N)CC2)nc2ccnn2c1Nc1ccc(F)c(Cl)c1 [compound 12]
Second: N[C@H]1CC[C@@H](Oc2cc(Nc3ccc(F)c(Cl)c3)n3ncc(I)c3n2)CC1 [compound 19]
The IC50 of the first is lower: 2 to 20 µM for the first, 20 to 100 µM for the second. The first is the more potent here.

CCOc1ccc(Nc2c(C)c(O[C@@H]3CNCC[C@H]3CC(=O)NC)nc3ccnn23)cc1 [compound 83] and CCOc1ccc(Nc2c(C)c(O[C@@H]3CNCC[C@H]3CC(N)=O)nc3ccnn23)cc1 (racemic) [Compound No. 82, (dl)-trans-2-{3-[7-(4-ethoxyphenyamino)-6-methylpyrazolo[1,5-a]pyrimidin-5-yloxyl-p]peridin-4-yl}acetamide] fall in the same range of IC50: 2 to 20 µM for the first, 2 to 20 µM for the second.

Cc1c(O[C@H]2CC[C@H](N)CC2)nc2ccnn2c1Nc1ccc(OCCOCc2ccccc2)cc1 [Compound No. 91, [5-(trans-4-aminocyclohexyloxy)-6-methylpyrazolo[1,5-a]pyrimidin-7-yl]-[4-(2-benzyloxyethoxy)phenyl]-amine] and CCOc1ccc(Nc2c(CCCO)c(O[C@H]3CC[C@H](N)CC3)nc3ccnn23)cc1 [Compound No. 88, 3-[5-(trans-4-aminocyclohexyloxy)-7-(4-ethoxyphenylamino)-pyrazolo [1,5-a]pyrimidin-6-yl]propan-1-ol] cannot be ordered by IC50: ≤ 2 µM for the first, ≤ 2 µM for the second.

CCC[C@@H]1CCNC[C@H]1Oc1nc2ccnn2c(Nc2ccc(OCC)cc2)c1C (racemic) [Compound No. 16, (dl)-(4-ethoxyphenyl)-[6-methyl-5-(trans-4-propylpiperidin-3-yloxy)pyrazolo[1,5-a]pyrimidin-7-yl]amine] and Cc1c(OC2CCCNC2)nc2ccnn2c1NC1CCCC1 (centres unmarked) [compound 272] fall in the same range of IC50: 2 to 20 µM for the first, 2 to 20 µM for the second.

Cc1c(O[C@H]2CC[C@@H](N)CC2)nc2ccnn2c1NC1CCCC1 [compound 271] showed an IC50 of 2 to 20 µM.
